Test results reported in PMC3914206.

Experiments:
Format in all cases: binding
Conditions in all cases: Compound Concentration 10 µM
panel of 442 kinases [1] = target: T1, panel of 442 kinases (Homo sapiens, UniProt Q9Y6R4)
T1 construct: purchased KINOMEscan
Text: (§1) We assessed the selectivity of members of this scaffold using the KINOMEscan methodology across a near comprehensive panel of 442 kinases [[18,27]].

panel of 442 kinases [2] = target: T2, panel of 442 kinases (Homo sapiens, UniProt O94806)
T2 construct: purchased KINOMEscan
T2 sequence (O94806 1-890): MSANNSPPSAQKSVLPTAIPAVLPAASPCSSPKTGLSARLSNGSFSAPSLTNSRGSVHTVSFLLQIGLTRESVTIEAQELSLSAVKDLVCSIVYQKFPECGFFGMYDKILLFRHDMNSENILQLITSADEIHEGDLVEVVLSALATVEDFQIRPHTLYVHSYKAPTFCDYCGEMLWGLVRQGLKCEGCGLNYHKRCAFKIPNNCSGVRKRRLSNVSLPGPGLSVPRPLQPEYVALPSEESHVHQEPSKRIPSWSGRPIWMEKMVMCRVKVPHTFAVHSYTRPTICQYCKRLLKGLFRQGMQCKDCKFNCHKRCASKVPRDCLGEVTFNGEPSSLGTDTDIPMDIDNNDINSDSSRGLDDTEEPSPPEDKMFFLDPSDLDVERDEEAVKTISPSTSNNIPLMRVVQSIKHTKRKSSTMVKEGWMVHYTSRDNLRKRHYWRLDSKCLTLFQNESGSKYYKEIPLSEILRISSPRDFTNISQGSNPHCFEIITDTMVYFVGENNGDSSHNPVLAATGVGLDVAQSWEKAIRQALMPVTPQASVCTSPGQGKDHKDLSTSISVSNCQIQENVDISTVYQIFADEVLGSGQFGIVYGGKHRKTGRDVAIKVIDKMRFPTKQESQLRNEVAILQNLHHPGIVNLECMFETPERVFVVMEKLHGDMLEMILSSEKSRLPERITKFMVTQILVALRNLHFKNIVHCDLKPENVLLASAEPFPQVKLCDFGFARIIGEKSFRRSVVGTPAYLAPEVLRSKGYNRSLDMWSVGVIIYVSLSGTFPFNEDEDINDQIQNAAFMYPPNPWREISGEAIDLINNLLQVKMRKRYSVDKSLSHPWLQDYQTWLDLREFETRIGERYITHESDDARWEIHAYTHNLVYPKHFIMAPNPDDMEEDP
Text: as §1

panel of 442 kinases [3] = target: T3, panel of 442 kinases (Homo sapiens, UniProt Q16512)
T3 construct: purchased KINOMEscan
T3 sequence (Q16512 whole entry): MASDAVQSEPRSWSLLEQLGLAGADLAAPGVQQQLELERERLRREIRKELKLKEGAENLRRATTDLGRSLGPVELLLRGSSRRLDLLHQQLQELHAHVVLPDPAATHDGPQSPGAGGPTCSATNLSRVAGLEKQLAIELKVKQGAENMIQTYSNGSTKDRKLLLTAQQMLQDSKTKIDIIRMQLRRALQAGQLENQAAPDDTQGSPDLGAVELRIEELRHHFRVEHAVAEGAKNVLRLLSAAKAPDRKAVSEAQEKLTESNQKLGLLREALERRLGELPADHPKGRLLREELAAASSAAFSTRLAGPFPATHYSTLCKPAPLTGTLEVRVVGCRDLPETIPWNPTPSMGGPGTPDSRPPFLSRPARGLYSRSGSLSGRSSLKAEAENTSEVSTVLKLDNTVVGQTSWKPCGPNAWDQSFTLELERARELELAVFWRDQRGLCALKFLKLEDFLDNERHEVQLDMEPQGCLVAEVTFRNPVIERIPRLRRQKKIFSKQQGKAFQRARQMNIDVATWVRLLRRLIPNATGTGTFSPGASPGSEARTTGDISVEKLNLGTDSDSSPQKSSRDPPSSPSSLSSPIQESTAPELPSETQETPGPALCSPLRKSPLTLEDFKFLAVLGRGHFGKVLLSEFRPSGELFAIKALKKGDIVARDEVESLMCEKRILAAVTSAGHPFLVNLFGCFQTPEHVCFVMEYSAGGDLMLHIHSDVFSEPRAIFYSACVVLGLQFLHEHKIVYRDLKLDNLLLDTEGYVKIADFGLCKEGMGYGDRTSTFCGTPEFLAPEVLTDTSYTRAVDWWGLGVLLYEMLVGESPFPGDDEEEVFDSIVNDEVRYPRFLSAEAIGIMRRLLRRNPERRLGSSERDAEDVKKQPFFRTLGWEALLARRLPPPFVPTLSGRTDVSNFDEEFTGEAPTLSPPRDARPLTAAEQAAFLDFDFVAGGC
Text: as §1

T1 sequence (Q9Y6R4 whole entry): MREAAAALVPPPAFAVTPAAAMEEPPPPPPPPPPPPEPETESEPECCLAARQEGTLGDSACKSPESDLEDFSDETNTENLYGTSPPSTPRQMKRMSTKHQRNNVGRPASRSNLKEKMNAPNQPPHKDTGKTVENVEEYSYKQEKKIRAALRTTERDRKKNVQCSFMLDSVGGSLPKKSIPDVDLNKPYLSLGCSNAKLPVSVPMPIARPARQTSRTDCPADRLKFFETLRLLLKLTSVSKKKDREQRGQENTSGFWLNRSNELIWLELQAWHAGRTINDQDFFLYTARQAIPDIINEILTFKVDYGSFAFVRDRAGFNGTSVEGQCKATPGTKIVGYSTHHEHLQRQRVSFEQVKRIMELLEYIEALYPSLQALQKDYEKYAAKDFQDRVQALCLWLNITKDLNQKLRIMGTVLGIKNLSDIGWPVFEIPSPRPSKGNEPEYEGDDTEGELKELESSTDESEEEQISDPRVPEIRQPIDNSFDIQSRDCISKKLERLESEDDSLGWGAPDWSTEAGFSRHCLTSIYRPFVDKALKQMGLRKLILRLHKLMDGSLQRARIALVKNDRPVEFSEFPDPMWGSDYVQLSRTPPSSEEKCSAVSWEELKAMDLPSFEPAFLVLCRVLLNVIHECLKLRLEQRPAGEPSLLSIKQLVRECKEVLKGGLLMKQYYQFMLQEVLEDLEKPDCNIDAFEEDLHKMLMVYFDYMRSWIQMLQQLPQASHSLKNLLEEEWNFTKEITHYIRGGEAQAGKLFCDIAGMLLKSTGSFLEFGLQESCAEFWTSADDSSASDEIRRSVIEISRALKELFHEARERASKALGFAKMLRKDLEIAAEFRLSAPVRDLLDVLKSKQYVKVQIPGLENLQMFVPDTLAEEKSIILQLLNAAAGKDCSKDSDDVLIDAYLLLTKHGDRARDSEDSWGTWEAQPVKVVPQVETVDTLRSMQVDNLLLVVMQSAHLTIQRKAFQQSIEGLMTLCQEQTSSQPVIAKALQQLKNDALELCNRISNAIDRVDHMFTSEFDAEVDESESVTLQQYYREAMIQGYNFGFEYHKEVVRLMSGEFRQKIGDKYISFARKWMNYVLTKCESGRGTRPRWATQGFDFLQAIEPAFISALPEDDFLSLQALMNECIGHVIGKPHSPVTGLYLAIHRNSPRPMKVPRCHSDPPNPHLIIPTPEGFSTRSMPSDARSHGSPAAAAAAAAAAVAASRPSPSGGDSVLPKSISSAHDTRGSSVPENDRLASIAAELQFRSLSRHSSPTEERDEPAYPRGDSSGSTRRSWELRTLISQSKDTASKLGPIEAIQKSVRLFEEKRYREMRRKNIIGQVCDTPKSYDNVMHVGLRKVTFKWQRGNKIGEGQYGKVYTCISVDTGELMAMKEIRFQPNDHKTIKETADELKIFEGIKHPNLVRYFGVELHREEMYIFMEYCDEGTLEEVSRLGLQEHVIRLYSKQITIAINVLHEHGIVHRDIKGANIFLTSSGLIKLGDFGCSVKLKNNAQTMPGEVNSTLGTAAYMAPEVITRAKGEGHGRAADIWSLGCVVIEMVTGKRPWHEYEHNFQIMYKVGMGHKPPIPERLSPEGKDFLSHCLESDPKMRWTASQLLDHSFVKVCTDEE

| Compound | KINOMEscan: MAP3K4 (panel of 442 kinases [1]) | KINOMEscan: PRKD3 (panel of 442 kinases [2]) | KINOMEscan: PKN1 (panel of 442 kinases [3]) |
| --- | --- | --- | --- |
| COc1cc(C(=O)N2CCC(N3CCN(C)CC3)CC2)ccc1Nc1ncc2c(n1)N(C)c1ccccc1C(=O)N2C [15 (LRRK2-IN-1)] | 100 | 42 | 100 |
| COc1cc(C(=O)N2CCC(N3CCN(C)CC3)CC2)ccc1Nc1ncc2c(n1)N1CCc3cccc(c31)C(=O)N2C [Compound 24] | – | 19 | – |
| COc1cc(C(=O)N2CCC(N3CCN(C)CC3)CC2)ccc1Nc1ncc2c(n1)N(C1CCCC1)c1ccccc1C(=O)N2C [Compound 25, 11-cyclopentyl-2-((2-methoxy-4-(4-(4-methylpiperazin-1-yl)piperidine-1-carbonyl)phenyl)amino)-5-methyl-5H-benzo[e]pyrimido[5,4-b][1,4]diazepin-6(11H)-one] | 100 | 100 | 100 |
| CCOc1cc(C(=O)N2CCC(N3CCN(C)CC3)CC2)ccc1Nc1ncc2c(n1)N(C1CCCC1)c1ccccc1C(=O)N2C [Compound 26] | 100 | 100 | 100 |
